Reference: patent publication US10188612B2, “Pharmaceutical compositions for inhalation” (VECTURA LIMITED, priority 2000, dated 2019)

Test: Standard dissolution test (sintered glass disc over stirred reservoir of deionised water)
Format: physicochemical
Conditions: FIG. 2
Description: The samples were analysed in a Cecil Aquarius CE7200 ultraviolet spectrophotometer at a wavelength of 200 nm. The concentration of the samples was calculated with a previously prepared calibration graph and the concentration versus time was plotted.
The apparatus used is shown in FIG. 1 and comprises a 195 cm^3 reservoir (1) filled with deionised water (2) and having an inlet port (3) and an outlet port (4). A sintered glass disc (5) of approximately 50 mm diameter and 3 mm depth occupies an opening at the top of the reservoir (1) and sits horizontally in contact with the water (2). The water in the reservoir is stirred by a magnetic stirrer (6).
A known mass of approximately 1 mg of the formulation (7) to be tested is placed on the sinter and a timer is started. At various times, 1 cm^3 samples of the water are removed from the reservoir and are immediately replaced with 1 cm^3 deionised water to maintain the volume in the reservoir. The concentration of the active substance in the 1 cm^3 samples is determined by a suitable method.

time at which the maximum concentration is achieved: 10 min
concentration of active substance in the reservoir at the first time point (at 5 minutes, UV at 200 nm): greater than 10 mg/l
Structure (SMILES): C[N+]1(C)CCC(OC(=O)C(O)(c2ccccc2)C2CCCC2)C1 (centres unmarked) [glycopyrrolate]
